According to ChEMBL document CHEMBL1201862, “PubChem BioAssay data set” (2004):
Calls of active or inactive are those of the source. Rule as the data show it, for most assays here: actives have a measured AC50 and inactives only a lower limit.

Legend:
HEK293 = assay: EBV LMP1 TES2 canonical NF-kB signalling blockers – cell-based, HEK293, luciferase, cherry-pick, dose response (AID 588343); format: functional; conditions: Homo sapiens
[1] = biological target: NAD-dependent protein deacylase sirtuin-5, mitochondrial (Homo sapiens, UniProt Q9NXA8); assay: sirtuin-5 deacylation blockers, concentration series – biochemical, fluorescence imaging, cherry-pick, set 5, dose response (AID 720591);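 also: desuccinylation of succinyl peptide AMC substrate read as fluorescence after trypsin release; potency of inhibitors that lower fluorescence and may act on trypsin instead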
Chain of NAD-dependent protein deacylase sirtuin-5, mitochondrial (Q9NXA8 whole entry): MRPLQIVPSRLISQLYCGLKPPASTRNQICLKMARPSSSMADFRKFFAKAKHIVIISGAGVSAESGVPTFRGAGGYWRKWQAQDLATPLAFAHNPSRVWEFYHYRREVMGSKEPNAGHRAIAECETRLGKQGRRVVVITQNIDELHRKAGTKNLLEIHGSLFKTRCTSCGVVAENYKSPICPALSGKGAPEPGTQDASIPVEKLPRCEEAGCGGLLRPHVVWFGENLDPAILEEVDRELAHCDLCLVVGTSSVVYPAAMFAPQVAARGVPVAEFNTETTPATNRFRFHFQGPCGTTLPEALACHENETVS

[2] = biological target: E3 ubiquitin-protein ligase Mdm2 (Homo sapiens, UniProt Q00987); assay: MDM2-luc reporter signal enhancers, multi-concentration potency testing, MDM2 ubiquitin-protein ligase inhibitor program, whole-cell format, luminescence detection, 384-well microplate (AID 1394); format: functional;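 also: MDM2 E3 inhibitors raise luminescence so EC50 is for signal enhancement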
Chain of E3 ubiquitin-protein ligase Mdm2 (Q00987 whole entry): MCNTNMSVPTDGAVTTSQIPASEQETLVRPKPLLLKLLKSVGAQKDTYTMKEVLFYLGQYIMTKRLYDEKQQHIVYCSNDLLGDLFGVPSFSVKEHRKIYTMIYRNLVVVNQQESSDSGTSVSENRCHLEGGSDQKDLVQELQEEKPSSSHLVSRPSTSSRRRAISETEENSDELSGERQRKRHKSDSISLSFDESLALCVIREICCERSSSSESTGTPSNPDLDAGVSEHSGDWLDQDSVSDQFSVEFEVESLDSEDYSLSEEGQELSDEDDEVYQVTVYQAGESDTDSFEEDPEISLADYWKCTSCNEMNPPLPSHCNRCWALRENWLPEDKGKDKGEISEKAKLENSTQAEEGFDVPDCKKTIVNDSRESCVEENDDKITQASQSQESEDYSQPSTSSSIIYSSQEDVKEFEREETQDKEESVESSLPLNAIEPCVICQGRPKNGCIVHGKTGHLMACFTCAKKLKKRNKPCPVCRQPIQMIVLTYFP

[3] = P. falciparum Dd2 growth inhibitors, dose response, SYBR Green, cherry-picked samples (AID 1159567); format: functional, cell-based
[4] = toxicity to human hepatoma HepG2 cells – cell-based, cherry-picked samples, cytotoxicity control, dose response (AID 1159577); format: functional
[5] = biological target: T1, Neuropeptides B/W receptor type 1 (Homo sapiens, UniProt P48145); assay: Fluorescence-based dose response cell-based high throughput screening assay to identify antagonists of the G-protein coupled receptor 7 (GPR7). [Related pubchem assays: 1952 (Screening assay (GPR7 antagonists).), 1880 (Summary AID.)]; format: functional
T1 sequence (P48145 whole entry): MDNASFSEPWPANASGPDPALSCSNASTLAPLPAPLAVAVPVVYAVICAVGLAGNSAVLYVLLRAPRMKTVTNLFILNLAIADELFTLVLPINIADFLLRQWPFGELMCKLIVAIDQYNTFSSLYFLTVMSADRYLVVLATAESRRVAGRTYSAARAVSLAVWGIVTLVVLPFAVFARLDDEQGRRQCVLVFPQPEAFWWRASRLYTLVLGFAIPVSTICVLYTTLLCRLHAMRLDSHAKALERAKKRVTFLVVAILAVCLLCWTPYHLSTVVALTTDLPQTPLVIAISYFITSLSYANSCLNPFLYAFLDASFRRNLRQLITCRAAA

[6] = biological target: Melanin-concentrating hormone receptor 1 (Homo sapiens, UniProt Q99705); assay: Fluorescence-based counterscreen for antagonists of the G-protein coupled receptor 7 (GPR7): cell-based high throughput dose response assay to identify antagonists of the melanin-concentrating hormone receptor 1 (MCHR1).; format: functional
Chain of Melanin-concentrating hormone receptor 1 (Q99705 whole entry): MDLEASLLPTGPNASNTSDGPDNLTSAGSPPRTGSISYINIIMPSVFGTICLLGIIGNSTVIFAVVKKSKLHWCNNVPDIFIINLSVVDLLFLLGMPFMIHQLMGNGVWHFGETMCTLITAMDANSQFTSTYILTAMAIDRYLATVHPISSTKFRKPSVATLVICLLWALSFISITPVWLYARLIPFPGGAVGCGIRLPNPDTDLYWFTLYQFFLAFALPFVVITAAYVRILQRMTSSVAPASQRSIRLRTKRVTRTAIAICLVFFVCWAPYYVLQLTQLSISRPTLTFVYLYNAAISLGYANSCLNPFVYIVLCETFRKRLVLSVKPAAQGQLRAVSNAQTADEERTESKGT

In the case of `CC(Sc1nc(-c2ccc(F)cc2)cs1)C(=O)N1c2ccccc2CC1C` (stereo not drawn), the AC50 (HEK293) is reported as 117 µM (active) and the AC50 [1] is reported as > 30 µM (inactive).

With `O=C(NC1CCCCC1)C(c1cccnc1)N(C(=O)c1ccc(Cl)nc1)C1CCCCC1` (stereo not drawn) the EC50 [2] was 12.7 µM (not active).

With `COc1ccccc1NC(=O)N1CCCCN2[C@H](CO)[C@H](c3ccc(C#Cc4ccccc4)cc3)[C@H]2C1` the AC50 [3] was 1.03 µM (active) and the AC50 [4] was 8.11 µM (active).

In the case of `NS(=O)(=O)c1cnccc1Nc1ccc(Cl)cc1`, the AC50 [1] is reported as > 30 µM (inactive).

In the case of `COc1ccc(C2CC2/C(=N/O)c2ccccn2)cc1` (stereo not drawn), the IC50 [5] is reported as > 43.8 µM (not active) and the IC50 [6] is reported as > 43.8 µM (not active).

For `COc1ccc(C(CNC(=O)COc2ccc(Cl)c(C)c2)N2CCCCC2)cc1` (stereo not drawn), the IC50 [5] was > 4.87 µM (active) and the IC50 [6] was 11.3 µM (not active).

For `CCCNC(=O)N1CC2(CCN(Cc3cccc(OC)c3)CC2)c2c(n(C)c3cc(OC)ccc23)[C@@H]1CO`, the AC50 [3] was 4.94 µM (active) and the AC50 [4] was 21.1 µM (active).

In the case of `C=CCN(c1cccc(C(F)(F)F)c1)S(=O)(=O)c1cccc(C(=O)OCC(=O)NCCC)c1`, the EC50 [2] is reported as 277 µM (not active).
